pIC50: −log10 of the molar value. Values after ≈ are worked out from the molar mass of the structure shown. Active and inactive are the calls of the source. The rule behind the calls is not given here.
What was measured:
[1] = test system: Mycobacterium tuberculosis H37Rv; assay: Antimycobacterial activity against Mycobacterium tuberculosis H37Rv infected in human THP-1 macrophages assessed as reduction in microbial growth incubated for 72 hrs; assay type: functional
[2] = test system: Mycobacterium tuberculosis H37Rv; assay: Antimycobacterial activity against Mycobacterium tuberculosis H37Rv assessed as reduction in bacterial growth incubated for 5 days by resazurin assay; assay type: functional; conditions: 120 h, time 5 day
[3] = Inhibition of Mycobacterium tuberculosis MurX using UDP-MurNAc-dansylpentapeptide as substrate by fluorescence assay
Escherichia coli = assay: Antibacterial activity against Escherichia coli BW25113 assessed as reduction in bacterial growth measured every 1 hr for 16 to 20 hrs; assay type: functional; conditions: time 16-20 hrs
[4] = test system: Mycobacterium tuberculosis; assay: Antimycobacterial activity against Mycobacterium tuberculosis mc2 6230 assessed as reduction in bacterial growth incubated for 10 days by time-kill kinetics method; assay type: functional; conditions: mc2 6230, 240 h, time 10 day
Staphylococcus aureus = assay: Antibacterial activity against Staphylococcus aureus ATCC 29213 assessed as reduction in bacterial growth measured every 1 hr for 16 to 20 hrs; assay type: functional; conditions: time 16-20 hrs
[5] = test system: Mycobacteroides abscessus; assay: Antimycobacterial activity against Mycobacterium abscessus RA 16 assessed as reduction in bacterial growth measured every 1 hr for 16 to 20 hrs; assay type: functional; conditions: time 16-20 hrs
Mycobacterium marinum [6] = assay: Antimycobacterial activity against Mycobacterium marinum infected in zebrafish assessed as reduction in bacterial burden at 100 uM after 3 days post infection by microscopic analysis; assay type: functional, organism-based; conditions: time 3.0 day
Bacillus subtilis = assay: Antibacterial activity against Bacillus subtilis 168 assessed as reduction in bacterial growth measured every 1 hr for 16 to 20 hrs; assay type: functional; conditions: time 16-20 hrs
Mycobacterium avium = assay: Antimycobacterial activity against Mycobacterium avium CA 6 assessed as reduction in bacterial growth measured every 1 hr for 16 to 20 hrs; assay type: functional; conditions: time 16-20 hrs
[7] = Antimycobacterial activity against Mycobacterium abscessus subsp. abscessus assessed as reduction in bacterial growth measured every 1 hr for 16 to 20 hrs; assay type: functional; conditions: Mycobacteroides abscessus; time 16-20 hrs
[8] = test system: Mycolicibacterium fortuitum; assay: Antimycobacterial activity against Mycobacterium fortuitum RA 17 assessed as reduction in bacterial growth measured every 1 hr for 16 to 20 hrs; assay type: functional; conditions: time 16-20 hrs
[9] = test system: Mycobacterium tuberculosis; assay: Bacteriostatic activity against Mycobacterium tuberculosis mc2 6230 at 10 times MIC after 28 days by time-kill kinetics method; assay type: functional, organism-based; conditions: time 28.0 day
Pseudomonas aeruginosa = assay: Antibacterial activity against Pseudomonas aeruginosa ATCC 27853 assessed as reduction in bacterial growth measured every 1 hr for 16 to 20 hrs; assay type: functional; conditions: time 16-20 hrs
[10] = test system: Mycolicibacterium fortuitum; assay: Antimycobacterial activity against Mycobacterium fortuitum PN assessed as reduction in bacterial growth measured every 1 hr for 16 to 20 hrs; assay type: functional; conditions: time 16-20 hrs
Enterococcus faecium = assay: Antibacterial activity against Enterococcus faecium ATCC 6569 assessed as reduction in bacterial growth measured every 1 hr for 16 to 20 hrs; assay type: functional; conditions: time 16-20 hrs
[11] = test system: Staphylococcus epidermidis; assay: Antibacterial activity against Staphylococcus epidermidis assessed as reduction in bacterial growth measured every 1 hr for 16 to 20 hrs; assay type: functional; conditions: time 16-20 hrs
Mycobacterium marinum [12] = assay: Antimycobacterial activity against Mycobacterium marinum infected in zebrafish assessed as reduction in bacterial burden at 100 uM after 5 days post infection by microscopic analysis; assay type: functional, organism-based; conditions: time 5.0 day

For C[C@@H]([C@H](NC(=O)[C@H](Cc1ccc2ccccc2c1)NC(=O)N[C@@H](Cc1c[nH]c2ccccc12)C(=O)OCC(C)(C)C)C(=O)NC[C@H]1C[C@@H](O)[C@H](n2ccc(=O)[nH]c2=O)O1)N(C)C(=O)CN, the MIC50 [1] was 1.5 µM, the MIC50 [2] was 0.021 µM (≈ 0.0188 µg/mL) and the pIC50 [3] was 6.10.

With C[C@@H]([C@H](NC(=O)[C@H](Cc1ccc2ccccc2c1)NC(=O)N[C@@H](Cc1c[nH]c2ccccc12)C(=O)NCC(C)(C)C)C(=O)NC[C@H]1C[C@@H](O)[C@H](n2ccc(=O)[nH]c2=O)O1)N(C)C(=O)CN the MIC (Escherichia coli) was 132 µM (≈ 118 µg/mL), the MIC [4] was 0.181 µM (≈ 0.162 µg/mL) and the MIC (Staphylococcus aureus) was > 132 µM. For the same molecule, the MIC [5] was 13 µM (≈ 11.6 µg/mL), the Activity (Mycobacterium marinum [6]) was “Active” and the MIC (Bacillus subtilis) was 132 µM (≈ 118 µg/mL). For the same molecule, the MIC (Mycobacterium avium) was 1 µM (≈ 0.895 µg/mL), the MIC [7] was 26 µM (≈ 23.3 µg/mL) and the MIC50 [1] was 1.2 µM. The MIC [8] was 1 µM (≈ 0.895 µg/mL), the MIC50 [2] was 0.0419 µM (≈ 0.0375 µg/mL) and the Activity [9] was “Active”. The pIC50 [3] was 7.70, the MIC (Pseudomonas aeruginosa) was > 132 µM and the MIC [10] was 2 µM (≈ 1.79 µg/mL). For the same molecule, the MIC (Enterococcus faecium) was > 132 µM and the MIC [11] was > 132 µM.

With COC(=O)[C@H](Cc1c[nH]c2ccccc12)NC(=O)N[C@@H](Cc1ccc2ccccc2c1)C(=O)N[C@H](C(=O)NC[C@H]1C[C@@H](O)[C@H](n2ccc(=O)[nH]c2=O)O1)[C@H](C)N(C)C(=O)CN the MIC50 [2] was 0.0652 µM (≈ 0.0548 µg/mL).

Work on CCCCCCOC(=O)[C@H](Cc1c[nH]c2ccccc12)NC(=O)N[C@@H](CC1CCCCC1)C(=O)N[C@H](C(=O)NC[C@H]1C[C@@H](O)[C@H](n2ccc(=O)[nH]c2=O)O1)[C@H](C)N(C)C(=O)CN yielded an MIC50 [1] of 9.5 µM, an MIC50 [2] of 0.0172 µM (≈ 0.0149 µg/mL) and a pIC50 [3] of 5.86.

CCCCCCCCCCCCOC(=O)[C@H](Cc1c[nH]c2ccccc12)NC(=O)N[C@@H](Cc1ccc2ccccc2c1)C(=O)N[C@H](C(=O)NC[C@H]1C[C@@H](O)[C@H](n2ccc(=O)[nH]c2=O)O1)[C@H](C)N(C)C(=O)CN gave an MIC50 [2] of 0.192 µM (≈ 0.191 µg/mL).

Work on C[C@@H]([C@H](NC(=O)[C@H](Cc1ccc2ccccc2c1)NC(=O)N[C@@H](Cc1c[nH]c2ccccc12)C(=O)NCc1ccccc1)C(=O)NC[C@H]1C[C@@H](O)[C@H](n2ccc(=O)[nH]c2=O)O1)N(C)C(=O)CN yielded an MIC50 [1] of 1.9 µM, an MIC50 [2] of 0.0741 µM (≈ 0.0678 µg/mL) and a pIC50 [3] of 7.47.

C[C@@H]([C@H](NC(=O)[C@H](Cc1ccc2ccccc2c1)NC(=O)N[C@@H](Cc1c[nH]c2ccccc12)C(=O)OCc1ccccc1)C(=O)NC[C@H]1C[C@@H](O)[C@H](n2ccc(=O)[nH]c2=O)O1)N(C)C(=O)CN gave an MIC50 [1] of 5.1 µM, an MIC50 [2] of 0.0132 µM (≈ 0.0121 µg/mL) and a pIC50 [3] of 5.86.

With CCCCCCNC(=O)[C@H](Cc1c[nH]c2ccccc12)NC(=O)N[C@@H](CC1CCCCC1)C(=O)N[C@H](C(=O)NC[C@H]1C[C@@H](O)[C@H](n2ccc(=O)[nH]c2=O)O1)[C@H](C)N(C)C(=O)CN the MIC50 [1] was > 100 µM, the MIC50 [2] was 0.124 µM (≈ 0.107 µg/mL) and the pIC50 [3] was 7.12.

C[C@@H]([C@H](NC(=O)[C@H](CC1CCCCC1)NC(=O)N[C@@H](Cc1c[nH]c2ccccc12)C(=O)O)C(=O)NC[C@H]1C[C@@H](O)[C@H](n2ccc(=O)[nH]c2=O)O1)N(C)C(=O)CN showed an MIC50 [1] of 1.6 µM, an MIC50 [2] of 0.08 µM (≈ 0.0625 µg/mL) and a pIC50 [3] of 7.27.

COC(=O)[C@H](Cc1c[nH]c2ccccc12)NC(=O)N[C@@H](CC1CCCCC1)C(=O)N[C@H](C(=O)NC[C@H]1C[C@@H](O)[C@H](n2ccc(=O)[nH]c2=O)O1)[C@H](C)N(C)C(=O)CN gave an MIC50 [2] of 0.0397 µM (≈ 0.0316 µg/mL).

C[C@@H]([C@H](NC(=O)[C@H](CC1CCCCC1)NC(=O)N[C@@H](Cc1c[nH]c2ccccc12)C(=O)OCC(C)(C)C)C(=O)NC[C@H]1C[C@@H](O)[C@H](n2ccc(=O)[nH]c2=O)O1)N(C)C(=O)CN gave an MIC50 [1] of 12.5 µM, an MIC50 [2] of 0.0059 µM (≈ 0.00503 µg/mL) and a pIC50 [3] of 6.15.

In the case of C[C@@H]([C@H](NC(=O)[C@H](CC1CCCCC1)NC(=O)N[C@@H](Cc1c[nH]c2ccccc12)C(=O)NCC(C)(C)C)C(=O)NC[C@H]1C[C@@H](O)[C@H](n2ccc(=O)[nH]c2=O)O1)N(C)C(=O)CN, the MIC (Escherichia coli) was 88 µM (≈ 74.9 µg/mL), the MIC [4] was 0.313 µM (≈ 0.266 µg/mL) and the MIC (Staphylococcus aureus) was > 132 µM. The MIC [5] was 23 µM (≈ 19.6 µg/mL), the MIC (Bacillus subtilis) was > 132 µM and the MIC (Mycobacterium avium) was 1 µM (≈ 0.851 µg/mL). For the same molecule, the MIC [7] was 23 µM (≈ 19.6 µg/mL), the MIC50 [1] was 6.7 µM and the MIC [8] was 1 µM (≈ 0.851 µg/mL). The MIC50 [2] was 0.0225 µM (≈ 0.0191 µg/mL), the Activity [9] was “inactive” and the pIC50 [3] was 7.22. The MIC (Pseudomonas aeruginosa) was > 132 µM, the MIC [10] was 1 µM (≈ 0.851 µg/mL) and the MIC (Enterococcus faecium) was > 132 µM. The MIC [11] was > 132 µM.

CCCCCCNC(=O)[C@H](Cc1c[nH]c2ccccc12)NC(=O)N[C@@H](Cc1ccc2ccccc2c1)C(=O)N[C@H](C(=O)NC[C@H]1C[C@@H](O)[C@H](n2ccc(=O)[nH]c2=O)O1)[C@H](C)N(C)C(=O)CN showed an MIC50 [1] of 2.1 µM, an MIC50 [2] of 0.0925 µM (≈ 0.0841 µg/mL) and a pIC50 [3] of 7.31.

In the case of C[C@@H]([C@H](NC(=O)[C@H](CC1CCCCC1)NC(=O)N[C@@H](Cc1c[nH]c2ccccc12)C(=O)OCc1ccccc1)C(=O)NC[C@H]1C[C@@H](O)[C@H](n2ccc(=O)[nH]c2=O)O1)N(C)C(=O)CN, the MIC50 [1] was 11.3 µM, the MIC50 [2] was 0.0085 µM (≈ 0.00741 µg/mL) and the pIC50 [3] was 6.21.

With C[C@@H]([C@H](NC(=O)[C@H](CC1CCCCC1)NC(=O)N[C@@H](Cc1c[nH]c2ccccc12)C(=O)NCc1ccccc1)C(=O)NC[C@H]1C[C@@H](O)[C@H](n2ccc(=O)[nH]c2=O)O1)N(C)C(=O)CN the MIC50 [1] was 4.6 µM, the MIC50 [2] was 0.0454 µM (≈ 0.0395 µg/mL) and the pIC50 [3] was 7.18.

In the case of CO[C@H]1/C=C/O[C@@]2(C)Oc3c(C)c(O)c4c(O)c(c(/C=N/N5CCN(C)CC5)c(O)c4c3C2=O)NC(=O)/C(C)=C\C=C\[C@H](C)[C@H](O)[C@@H](C)[C@@H](O)[C@@H](C)[C@H](OC(C)=O)[C@@H]1C [RIFAMPIN], the Activity (Mycobacterium marinum [12]) was “Active” and the MIC50 [2] was 0.00153 µM (≈ 0.00126 µg/mL).

Molecule C[C@@H]([C@H](NC(=O)[C@H](Cc1ccc2ccccc2c1)NC(=O)N[C@@H](Cc1c[nH]c2ccccc12)C(=O)O)C(=O)NC[C@H]1C[C@@H](O)[C@H](n2ccc(=O)[nH]c2=O)O1)N(C)C(=O)CN has an MIC50 [1] of 4.3 µM and an MIC50 [2] of 0.18 µM (≈ 0.149 µg/mL).

Work on CCCCCCCCCCCCOC(=O)[C@H](Cc1c[nH]c2ccccc12)NC(=O)N[C@@H](CC1CCCCC1)C(=O)N[C@H](C(=O)NC[C@H]1C[C@@H](O)[C@H](n2ccc(=O)[nH]c2=O)O1)[C@H](C)N(C)C(=O)CN yielded an MIC50 [2] of 0.142 µM (≈ 0.135 µg/mL).

CCCCCCOC(=O)[C@H](Cc1c[nH]c2ccccc12)NC(=O)N[C@@H](Cc1ccc2ccccc2c1)C(=O)N[C@H](C(=O)NC[C@H]1C[C@@H](O)[C@H](n2ccc(=O)[nH]c2=O)O1)[C@H](C)N(C)C(=O)CN showed an MIC50 [1] of 0.5 µM, an MIC50 [2] of 0.0269 µM (≈ 0.0245 µg/mL) and a pIC50 [3] of 5.57.

Reference: ChEMBL document CHEMBL5055683, “Synthetic Sansanmycin Analogues as Potent Mycobacterium tuberculosis Translocase I Inhibitors” (J Med Chem, 2021)
